Patent US20170029355A1, “LABILE ESTERS OF AGROCHEMICALS FOR CONTROLLED RELEASE AND REDUCTION OF OFF-SITE MOVEMENT” (Monsanto Technology LLC, priority 2011, published 2017)

What was measured:
[1] = system: glyphosate-tolerant, dicamba-sensitive soy plants; experiment: Humidome volatility injury to dicamba-sensitive plants (Example 31); settings: assessed after three weeks in greenhouse; for % Injury: soy plants 24 hours in closed humidome over sprayed soil (0.5% dicamba equivalent + 1.5% glyphosate), 35° C.; for Growth Stage: soy plants 24 hours in closed humidome over sprayed soil
Source text: In this case, the diglycolamine salt of dicamba (CLARITY®) was used for comparison.
Dicamba photo-labile ester formulations from Example 28 were mixed with a commercial glyphosate formulation (ROUNDUP POWERMAX®) and diluted to provide a solution with a 0.5% dicamba equivalent concentrate of the ester (or dicamba diglycolamine salt) and 1.5% concentrate of glyphosate. The mixtures were sprayed at a 10 gallon per acre (93.5 liters per hectare) rate on soil in a plastic container (“humidome”) with a transparent lid. One soil container was sprayed with water as a control. Four glyphosate-tolerant, dicamba-sensitive soy plants between V2 and V3 stage were immediately placed on the sprayed soil and the domes attached to the trays with binder clips. The soy plants were in pots placed directly on the soil but with aluminum foil wrapped around the bottom to prevent uptake of dicamba or dicamba esters through the roots.
The closed containers were held for 24 hours in a growth chamber which was maintained at 35° C. with 40% relative humidity. The plants were then removed and grown in a greenhouse for three weeks. At this time plant injury and growth stage were assessed compared to the control treated with water only.

[2] = In vitro dicamba photo-release from photo-labile dicamba esters, tetrahydrofuran solvent (Example 26); assay type: physicochemical; settings: THF, 0.1 mM ester; for Dark Control % dicamba: initial solution kept away from the light source, analyzed at conclusion of study
Description: This Example describes in vitro testing of dicamba photo-release by homogeneous solutions of photo-labile dicamba esters. The esters were dissolved in tetrahydrofuran (THF). Ester concentration was 0.1 mM. 25 ml of the solution was transferred to 22 mm tubes fabricated from graded seal quartz tubing with a 19/22 tapered seal at the top, which was closed with a tapered glass plug and secured with a plastic ring clamp. The solution was entirely below the quartz-to-glass transition, ensuring that the entire volume was exposed to the full spectrum.
The sealed tubes were placed in a Growth Chamber where they were exposed to simulated sunlight for 14 hours per day at 35° C. Dicamba concentrations in the solution were measured during the course of the photolysis.
A sample of the initial solution was reserved in a glass vial away from the light source and analyzed at the conclusion of the study, providing a measurement of the amount of dicamba present without illumination of the photolysis solution (the “dark control”).

[3] = system: morning glory; experiment: Field testing of emulsifiable concentrates, post-emergent control (Example 38); assay type: in vivo; settings: for post-emergent control of morning glory compared with the dicamba salt, in words: 280 and 420 g dicamba acid equivalent per hectare; for % control, 280 g/ha, Morning glory: 280 g dicamba acid equivalent per hectare; for % control, 280 g/ha, Morning glory / % control, 420 g/ha, Morning glory: 11 or 21 days after treatment; for % control, 420 g/ha, Morning glory: 420 g dicamba acid equivalent per hectare
Source text: (§1) Four dicamba esters, 1a, 2, 9, and 13a, were formulated as emulsifiable concentrates for field testing. All formulations contained 5% each of a alkylbenzene sulfonate calcium salt (Huntsman NANSA EVM 62/H or Akzo Nobel WITCONATE P-1220 EH) and castor oil ethoxylate (Huntsman SURFONIC CO-54) as the emulsifiers and Aromatic 200 (Exxon) or monochlorobenzene (MCB) as the solvent.
(§2) The esters were compared to the diglycolamine salt of dicamba (CLARITY™) for post-emergent control of three broadleaf weeds: velvetleaf, morning glory, and hemp sesbania. Rates of 280 and 420 g dicamba acid equivalent per hectare were used. […] Evaluations were conducted at 11 or 21 days after treatment. Locations and timing were identical for all formulations tested.

[4] = system: hemp sesbania; experiment: as above; assay type: in vivo; settings: for post-emergent control of hemp sesbania compared with the dicamba salt, in words: 280 and 420 g dicamba acid equivalent per hectare; for % control, 280 g/ha, Hemp sesbania: 280 g dicamba acid equivalent per hectare; for % control, 280 g/ha, Hemp sesbania / % control, 420 g/ha, Hemp sesbania: 11 or 21 days after treatment; for % control, 420 g/ha, Hemp sesbania: 420 g dicamba acid equivalent per hectare
Source text: as §1, §2

[5] = system: velvetleaf; experiment: as above; assay type: in vivo; settings: for post-emergent control of velvetleaf compared with the dicamba salt, in words: 280 and 420 g dicamba acid equivalent per hectare; for % control, 280 g/ha, Velvetleaf: 280 g dicamba acid equivalent per hectare; for % control, 280 g/ha, Velvetleaf / % control, 420 g/ha, Velvetleaf: 11 or 21 days after treatment; for % control, 420 g/ha, Velvetleaf: 420 g dicamba acid equivalent per hectare
Source text: as §1, §2

[6] = system: broadleaf weeds; experiment: Control of broadleaf weeds by ester concentrates (statements of the description); assay type: in vivo; settings: for control of a number of broadleaf weeds in field testing, in words: emulsifiable and suspension concentrates, Sesbania macrocarpa, morning glory, velvetleaf, Palmer amaranth, fat hen, sicklepod
[7] = In vitro photo-release and hydrolytic release of dicamba in an aqueous medium (Example 35); assay type: physicochemical; settings: 0.01 mM ester, 35° C.
Description: This Example describes the determination of photo-lability and hydrolytic lability of dicamba esters in an aqueous medium. 1 mM solutions of the esters were prepared in acetonitrile (or […] solutions of dicamba diesters). The solutions were then diluted with deionized water to a concentration of 0.01 mM (or 0.005 mM for diesters). The solutions were then transferred to quartz tubes and amber bottles and held in a growth chamber by the procedure of Example 26. A 14-hour day was generally used at a constant temperature of 35° C. Hydrolytic activity was assessed by measuring the increase in dicamba concentration after day zero in the amber (dark) bottles. […] Photolysis manifested itself as increased conversion in the quartz tubes compared to the dark control.

[8] = system: velvetleaf; experiment: Greenhouse post-emergent control of velvetleaf by emulsifiable concentrates (Example 29); assay type: in vivo; settings: three weeks after treatment
How it was run: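 Greenhouse velvetleaf 10–15 cm tall sprayed post-emergence with photo-labile ester emulsifiable concentrates at 140, 280, 420 and 560 g dicamba equivalent/ha, alongside dicamba diglycolamine salt at the same rates and untreated plants. Percent control scored three weeks after treatment.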

[9] = system: Euphorbia species; experiment: Field testing for post-emergent activity in the Southern Hemisphere (Example 39); assay type: in vivo; settings: 9 as suspension concentrate, other esters as emulsifiable concentrates
How it was run: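 Southern Hemisphere field trial, post-emergence application on Euphorbia weeds. Esters applied as emulsifiable concentrates in aromatic solvent with emulsifiers, one ester as a suspension concentrate. Dicamba diglycolamine salt served as comparator.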

[10] = simulated sunlight 14 hours per day, 35° C.

Structure (SMILES): COc1c(Cl)ccc(Cl)c1C(=O)OCCc1ccccc1[N+](=O)[O-] [Ester 2, 2-Nitrophenethyl Ester of Dicamba]
- % Injury [1]: 13%
- Growth Stage [1]: 9
- Dark Control % dicamba [2]: 0%
- Conversion to dicamba, 1 day [2, 10]: 46%
- Conversion to dicamba, 2 days [2, 10]: 54%
- Conversion to dicamba, 3 days [2, 10]: 72%
- Conversion to dicamba, 5 days [2, 10]: 84%
- Conversion to dicamba, 7 days [2, 10]: 88%
- Conversion to dicamba, 9 days ([2]; simulated sunlight 14 hours per day, 35° C., 9 days): 98%
- Conversion to dicamba, 12 days ([2]; simulated sunlight 14 hours per day, 35° C., 12 days): 96%
- Conversion to dicamba, 15 days [2, 10]: 95%
- post-emergent control of morning glory compared with the dicamba salt, in words [3]: equivalent to the dicamba salt
- % control, 280 g/ha, Morning glory [3]: 94%
- % control, 420 g/ha, Morning glory [3]: 95%
- post-emergent control of hemp sesbania compared with the dicamba salt, in words [4]: equivalent to the dicamba salt
- % control, 280 g/ha, Hemp sesbania [4]: 92%
- % control, 420 g/ha, Hemp sesbania [4]: 97%
- post-emergent control of velvetleaf compared with the dicamba salt, in words [5]: equivalent to the dicamba salt
- % control, 280 g/ha, Velvetleaf [5]: 85%
- % control, 420 g/ha, Velvetleaf [5]: 92%
- control of a number of broadleaf weeds in field testing, in words [6]: proven effective
- field efficacy for control of broadleaf weeds compared with the diglycolamine salt of dicamba, in words ([6]; field tests of emulsifiable concentrates): slightly more effective than the diglycolamine salt of dicamba
- Conversion to Dicamba, Dark, Day 0 ([7]; amber (dark) bottle): 3%
- Conversion to Dicamba, Dark, Day 1 ([7]; amber (dark) bottle): 3%
- Conversion to Dicamba, Dark, Day 2 ([7]; amber (dark) bottle): 3%
- Conversion to Dicamba, Dark, Day 3 ([7]; amber (dark) bottle): 3%
- Conversion to Dicamba, Dark, Day 4 ([7]; amber (dark) bottle): 3%
- Conversion to Dicamba, Dark, Day 7 ([7]; amber (dark) bottle): 3%
- Conversion to dicamba, Dark, Day 10 ([7]; amber (dark) bottle, Day 10): 3%
- Conversion to Dicamba, Dark, Day 14 ([7]; amber (dark) bottle): 3%
- Conversion to Dicamba, Dark, Day 21 ([7]; amber (dark) bottle, Day 21): 3%
- Conversion to Dicamba, Dark, Day 28 ([7]; amber (dark) bottle, Day 28): 3%
- Conversion to Dicamba, Light, Day 0 ([7]; quartz tube, 14-hour day): 3%
- Conversion to Dicamba, Light, Day 1 ([7]; quartz tube, 14-hour day): 78%
- Conversion to Dicamba, Light, Day 2 ([7]; quartz tube, 14-hour day): 79%
- Conversion to Dicamba, Light, Day 3 ([7]; quartz tube, 14-hour day): 75%
- Conversion to Dicamba, Light, Day 4 ([7]; quartz tube, 14-hour day): 77%
- Conversion to Dicamba, Light, Day 7 ([7]; quartz tube, 14-hour day): 78%
- Conversion to dicamba, Light, Day 10 ([7]; quartz tube, 14-hour day, Day 10): 84%
- Conversion to Dicamba, Light, Day 14 ([7]; quartz tube, 14-hour day): 82%
- Conversion to Dicamba, Light, Day 21 ([7]; quartz tube, 14-hour day, Day 21): 83%
- Conversion to Dicamba, Light, Day 28 ([7]; quartz tube, 14-hour day, Day 28): 86%
- % Control of velvetleaf, 140 g/ha ([8]; 140 g dicamba equivalent per hectare): 50%
- % Control of velvetleaf, 280 g/ha ([8]; 280 g dicamba equivalent per hectare): 69%
- % Control of velvetleaf, 420 g/ha ([8]; 420 g dicamba equivalent per hectare): 78%
- % Control of velvetleaf, 560 g/ha ([8]; 560 g dicamba equivalent per hectare): 90%

Structure (SMILES): COc1c(Cl)ccc(Cl)c1C(=O)Oc1cnc2ccccc2n1 [Ester 13a, 2-quinoxalinol ester of dicamba]
- % Injury [1]: 18%
- Growth Stage [1]: 8
- Dark Control % dicamba [2]: 11%
- Conversion to dicamba, 1 day [2, 10]: 28%
- Conversion to dicamba, 2 days [2, 10]: 35%
- Conversion to dicamba, 3 days [2, 10]: 43%
- Conversion to dicamba, 5 days [2, 10]: 48%
- Conversion to dicamba, 7 days [2, 10]: 61%
- Conversion to dicamba, 11 days ([2]; simulated sunlight 14 hours per day, 35° C., 11 days): 66%
- Conversion to dicamba, 15 days [2, 10]: 68%
- post-emergent control of morning glory compared with the dicamba salt, in words [3]: equivalent to the dicamba salt
- % control, 280 g/ha, Morning glory [3]: 100%
- % control, 420 g/ha, Morning glory [3]: 100%
- post-emergent control of hemp sesbania compared with the dicamba salt, in words [4]: equivalent to the dicamba salt
- % control, 280 g/ha, Hemp sesbania [4]: 95%
- % control, 420 g/ha, Hemp sesbania [4]: 98%
- post-emergent control of velvetleaf compared with the dicamba salt, in words [5]: nearly equivalent to the dicamba salt
- % control, 280 g/ha, Velvetleaf [5]: 72%
- % control, 420 g/ha, Velvetleaf [5]: 84%
- control of a number of broadleaf weeds in field testing, in words [6]: proven effective
- % control, 0.25 lb/ac (0.28 kg/hectare) ([9]; 0.25 lb dicamba a.e. per acre): 46%
- % control, 0.50 lb/ac (0.56 kg/hectare) ([9]; 0.50 lb dicamba a.e. per acre): 55%
- Conversion to Dicamba, Dark, Day 0 ([7]; amber (dark) bottle): 8%
- Conversion to Dicamba, Dark, Day 1 ([7]; amber (dark) bottle): 7%
- Conversion to Dicamba, Dark, Day 2 ([7]; amber (dark) bottle): 7%
- Conversion to Dicamba, Dark, Day 3 ([7]; amber (dark) bottle): 8%
- Conversion to Dicamba, Dark, Day 4 ([7]; amber (dark) bottle): 8%
- Conversion to Dicamba, Dark, Day 7 ([7]; amber (dark) bottle): 9%
- Conversion to dicamba, Dark, Day 11 ([7]; amber (dark) bottle, Day 11): 11%
- Conversion to Dicamba, Dark, Day 14 ([7]; amber (dark) bottle): 12%
- Conversion to Dicamba, Light, Day 0 ([7]; quartz tube, 14-hour day): 8%
- Conversion to Dicamba, Light, Day 1 ([7]; quartz tube, 14-hour day): 9%
- Conversion to Dicamba, Light, Day 2 ([7]; quartz tube, 14-hour day): 12%
- Conversion to Dicamba, Light, Day 3 ([7]; quartz tube, 14-hour day): 13%
- Conversion to Dicamba, Light, Day 4 ([7]; quartz tube, 14-hour day): 13%
- Conversion to Dicamba, Light, Day 7 ([7]; quartz tube, 14-hour day): 15%
- Conversion to dicamba, Light, Day 11 ([7]; quartz tube, 14-hour day, Day 11): 19%
- Conversion to Dicamba, Light, Day 14 ([7]; quartz tube, 14-hour day): 20%
